Reference: patent US4810818A, “Process for producing alpha-aspartyl-l-phenylalanine methyl ester having an improved solubility” (Toyo Soda Manufacturing Co., Ltd, priority 1986, dated 1989)
Peptide text beside a SMILES is read from it.

How the values were obtained:
[1] = as compared with the I type crystals; cited from earlier work
[2] = Crystal form conversion (I type to II type) on drying; assay type: physicochemical; settings: irrespective of the drying method
[3] = drying at a high temperature; part readily converted to a diketopiperadine derivative; cited from earlier work
[4] = cited from earlier work
[5] = Solubility: duration till 1 g of Aspartame crystals in 500 ml distilled water was completely dissolved as visually observed; assay type: physicochemical; settings: 1 g in 500 ml distilled water, 20° C., magnetic stirrer 200 r.p.m.; for Solubility (min) (duration till completely dissolved): Table 1; for Solubility (min.) (duration till completely dissolved): Table 2, dried at 50° C. then 70° C.
Procedure: In the Examples, the solubility of Aspartame crystals was determined by measuring the duration till 1 g of Aspartame crystals which was added to 500 ml of distilled water at 20° C., followed by stirring (by a magnetic stirrer at 200 r.p.m.), was completely dissolved as visually observed.

[6] = Ratio of I type crystals by X-ray diffraction specific peaks with calibration curve; assay type: physicochemical; settings: peaks at 2θ 4.4° (I) and 5.0° (II)
Procedure: Then, the ratio of the I type crystals was determined by comparing the strength ratio of each sample with the calibration curve.

[7] = Dispersibility and solubility in water (general statements); assay type: physicochemical; settings: as compared with the II type crystals
[8] = Table 2, dried at 50° C. then 70° C.

SMILES | Solubility (min.) (duration till completely dissolved) [5] [min] | Ratio of I type crystals (%) [6, 8] [%] | also measured
COC(=O)[C@H](Cc1ccccc1)NC(=O)[C@@H](N)CC(=O)O [Aspartame II type crystals, α-L-aspartyl-L-phenylalanine methyl ester] (H-Asp-Phe-OMe) | – | – | hygroscopicity [1]: low hygroscopicity; storage stability [1]: excellent storage stability
COC(=O)[C@H](Cc1ccccc1)NC(=O)[C@@H](N)CC(=O)O [Aspartame, α-L-aspartyl-L-phenylalanine methyl ester] (H-Asp-Phe-OMe) | – | – | water content till which the I type crystal form is maintained [2]: about 15 % by weight; stability at a high temperature [3]: not stable at a high temperature; dispersibility and solubility in water [4]: poor dispersibility and solubility in water
COC(=O)[C@H](Cc1ccccc1)NC(=O)[C@@H](N)CC(=O)O [Comparative Example 1, α-L-aspartyl-L-phenylalanine methyl ester] (H-Asp-Phe-OMe) | – | – | Solubility (min) (duration till completely dissolved) [5]: 13 to 14 min; Ratio of I type crystals (%) ([6]; Table 1): 25%
COC(=O)[C@H](Cc1ccccc1)NC(=O)[C@@H](N)CC(=O)O [Example 1, α-L-aspartyl-L-phenylalanine methyl ester] (H-Asp-Phe-OMe) | – | – | Solubility (min) (duration till completely dissolved) [5]: 5 to 6 min; Ratio of I type crystals (%) ([6]; Table 1): 98%
COC(=O)[C@H](Cc1ccccc1)NC(=O)[C@@H](N)CC(=O)O [Example 2, α-L-aspartyl-L-phenylalanine methyl ester] (H-Asp-Phe-OMe) | 5 to 6 | 90 | –
COC(=O)[C@H](Cc1ccccc1)NC(=O)[C@@H](N)CC(=O)O [Example 3, α-L-aspartyl-L-phenylalanine methyl ester] (H-Asp-Phe-OMe) | 5 to 6 | 100 | –
COC(=O)[C@H](Cc1ccccc1)NC(=O)[C@@H](N)CC(=O)O [Example 4, α-L-aspartyl-L-phenylalanine methyl ester] (H-Asp-Phe-OMe) | 4 to 5 | 98 | –
COC(=O)[C@H](Cc1ccccc1)NC(=O)[C@@H](N)CC(=O)O [Example 5, α-L-aspartyl-L-phenylalanine methyl ester] (H-Asp-Phe-OMe) | 4 to 5 | 100 | –
COC(=O)[C@H](Cc1ccccc1)NC(=O)[C@@H](N)CC(=O)O [I type crystals, α-L-aspartyl-L-phenylalanine methyl ester] (H-Asp-Phe-OMe) | – | – | solubility, I type versus II type crystals [7]: far superior in the solubility to the II type crystals
COC(=O)[C@H](Cc1ccccc1)NC(=O)[C@@H](N)CC(=O)O [compound 2, α-L-aspartyl-L-phenylalanine methyl ester] (H-Asp-Phe-OMe) | 13 to 14 | 60 | –
COC(=O)[C@H](Cc1ccccc1)NC(=O)[C@@H](N)CC(=O)O [compound 3, α-L-aspartyl-L-phenylalanine methyl ester] (H-Asp-Phe-OMe) | 15 to 16 | 51 | –
COC(=O)[C@H](Cc1ccccc1)NC(=O)[C@@H](N)CC(=O)O [compound 4, α-L-aspartyl-L-phenylalanine methyl ester] (H-Asp-Phe-OMe) | 14 to 15 | 64 | –
COC(=O)[C@H](Cc1ccccc1)NC(=O)[C@@H](N)CC(=O)O [compound 5, α-L-aspartyl-L-phenylalanine methyl ester] (H-Asp-Phe-OMe) | 7 to 8 | 78 | –
